From US20240041805A1, “PHARMACEUTICAL COMPOSITIONS OF NICLOSAMIDE AND A PROTEIN” (priority 2020, published 2024)
Converted amounts (≈) assume the structure as drawn. “And” between values parts separate entries of the source, which are not always exact repeats. Identical values can stand only once.

What was measured:
[1] = test system: methicillin-resistant S. aureus strain Mu50; assay: Resazurin-based microbroth dilution assay; assay type: cell-based; details: S. aureus Mu50, hLYS alone
SARS-CoV-2 [2] = assay type: cell-based
[3] = Size exclusion chromatography of hLYS aggregation before and after spray drying and nebulization; assay type: physicochemical; details: not nebulized
[4] = FTIR-ATR secondary structure analysis of hLYS; assay type: physicochemical
[5] = Particle size distribution by laser diffraction (dry powder and reconstituted suspension); details: after air jet milling (micronized)
SARS-CoV-2 [6] = assay: microbe, parasite or virus in culture; assay type: cell-based; details: Severe acute respiratory syndrome coronavirus 2, Vero C1008; Vero E6 cells, observed CPE, dose based on NIC content
MERS-CoV = assay: microbe, parasite or virus in culture; assay type: cell-based; details: Middle East respiratory syndrome-related coronavirus, Vero C1008, read-out: EC50 dose for MERS-CoV

hLYS: recombinant human lysozyme (InVitria)
inhibitory activity [1]: No inhibitory activity | activity against SARS-CoV-2 (SARS-CoV-2 [2]; hLYS alone): appeared to exhibit activity against SARS-CoV-2 | Fragment [3]: 0.7% | HMW [3]: 17.2% | Monomer [3]: 82.1% | Anti-parallel β-sheet ([4]; 1618-1625 cm^−1): 21.7% | Parallel β-sheet ([4]; 1633-1637 cm^−1): 0.7% | α-helix ([4]; 1653 cm^−1): 57.6% | Turns ([4]; 1678-1680 cm^−1): 20.2%

O=C(Nc1ccc([N+](=O)[O-])cc1Cl)c1cc(Cl)ccc1O [niclosamide, 5-Chloro-N-(2-chloro-4-nitrophenyl)salicylamide]
X50 diameter [5]: 2.2 μm | X90 diameter [5]: 4.2 μm and 4.1 μm

O=C(Nc1ccc([N+](=O)[O-])cc1Cl)c1cc(Cl)ccc1O [NIC-M, 5-Chloro-N-(2-chloro-4-nitrophenyl)salicylamide]
inhibitory activity against SARS-CoV-2 compared to solubilized NIC (SARS-CoV-2 [2]; NIC dose of 0.125 μg/mL, quantified viral particles): significantly improved activity compared to solubilized NIC | EC50 (SARS-CoV-2 [6]): 0.03 µg/mL (≈ 0.0917 µM) | EC50 (MERS-CoV): 0.016 µg/mL (≈ 0.0489 µM)
